Laboratory results taken from PMC5439695 (PLoS ONE, 2017).
Read-outs that look alike come from different tables or passages of the source.

What was measured:
HEK293 cells [1] = details: HEK293 flor; for hek293_flor_bin: kinetics bin; for hek293_flor_emax_0 / hek293_flor_pod_0 / hek293_flor_wauc_0: time point 0; for hek293_flor_emax_8 / hek293_flor_pod_8 / hek293_flor_wauc_8: time point 8; for hek293_flor_emax_16 / hek293_flor_pod_16 / hek293_flor_wauc_16: time point 16; for hek293_flor_emax_24 / hek293_flor_pod_24 / hek293_flor_wauc_24: time point 24; for hek293_flor_emax_32 / hek293_flor_pod_32 / hek293_flor_wauc_32: time point 32; for hek293_flor_emax_40 / hek293_flor_pod_40 / hek293_flor_wauc_40: time point 40
HepG2 cells [2] = assay: CellTox Green Cytotoxicity Assay (flor) in HepG2, HepG2[flor]; format: cell-based, human; details: HepG2 flor; for hepg2_flor_bin: kinetics bin; for hepg2_flor_emax_0 / hepg2_flor_pod_0 / hepg2_flor_wauc_0: time point 0; for hepg2_flor_emax_8 / hepg2_flor_pod_8 / hepg2_flor_wauc_8: time point 8; for hepg2_flor_emax_16 / hepg2_flor_pod_16 / hepg2_flor_wauc_16: time point 16; for hepg2_flor_emax_24 / hepg2_flor_pod_24 / hepg2_flor_wauc_24: time point 24; for hepg2_flor_emax_32 / hepg2_flor_pod_32 / hepg2_flor_wauc_32: time point 32; for hepg2_flor_emax_40 / hepg2_flor_pod_40 / hepg2_flor_wauc_40: time point 40;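 on hepg2 flor emax 0: percent activity versus DMSO-only wells with baseline rescaled to 0%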;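 on hepg2 flor emax 40: percent activity versus DMSO-only wells with baseline rescaled to 0%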
HepG2 cells [3] = details: HepG2 glo; for hepg2_glo_bin: kinetics bin; for hepg2_glo_emax_0 / hepg2_glo_pod_0 / hepg2_glo_wauc_0: time point 0; for hepg2_glo_emax_8 / hepg2_glo_pod_8 / hepg2_glo_wauc_8: time point 8; for hepg2_glo_emax_16 / hepg2_glo_pod_16 / hepg2_glo_wauc_16: time point 16; for hepg2_glo_emax_24 / hepg2_glo_pod_24 / hepg2_glo_wauc_24: time point 24; for hepg2_glo_emax_32 / hepg2_glo_pod_32 / hepg2_glo_wauc_32: time point 32; for hepg2_glo_emax_40 / hepg2_glo_pod_40 / hepg2_glo_wauc_40: time point 40
HEK293 cells [4] = details: HEK293 glo; for hek293_glo_bin: kinetics bin; for hek293_glo_emax_0 / hek293_glo_pod_0 / hek293_glo_wauc_0: time point 0; for hek293_glo_emax_8 / hek293_glo_pod_8 / hek293_glo_wauc_8: time point 8; for hek293_glo_emax_16 / hek293_glo_pod_16 / hek293_glo_wauc_16: time point 16; for hek293_glo_emax_24 / hek293_glo_pod_24 / hek293_glo_wauc_24: time point 24; for hek293_glo_emax_32 / hek293_glo_pod_32 / hek293_glo_wauc_32: time point 32; for hek293_glo_emax_40 / hek293_glo_pod_40 / hek293_glo_wauc_40: time point 40
[5] = test system: HEK293 and HepG2 cell lines
Wherever hek293 flor emax 0 is given: unit not given here.

## O=C(O)c1ccccc1O.Oc1cccc2cccnc12 [8-Quinolinol Salicylic acid (1:1)]
HEK293 cells [1]
  hek293_flor_auc: 0
  hek293_flor_time: 48
  hek293_flor_bin: inactive
  hek293_flor_emax_0: 0
  hek293_flor_pod_0: -4.417
  hek293_flor_wauc_0: 0
  hek293_flor_emax_8: 0
  hek293_flor_pod_8: -4.417
  hek293_flor_wauc_8: 0
  hek293_flor_emax_16: 0
  hek293_flor_pod_16: -4.417
  hek293_flor_wauc_16: 0
  hek293_flor_emax_24: 0
  hek293_flor_pod_24: -4.417
  hek293_flor_wauc_24: 0
  hek293_flor_emax_32: 0
  hek293_flor_pod_32: -4.417
  hek293_flor_wauc_32: 0
  hek293_flor_emax_40: 0
  hek293_flor_pod_40: -4.417
  hek293_flor_wauc_40: 0
HepG2 cells [2]
  hepg2_flor_auc: 0
  hepg2_flor_time: 48
  hepg2_flor_bin: inactive
  hepg2_flor_emax_0: 0
  hepg2_flor_pod_0: -4.417
  hepg2_flor_wauc_0: 0
  hepg2_flor_emax_8: 0
  hepg2_flor_pod_8: -4.417
  hepg2_flor_wauc_8: 0
  hepg2_flor_emax_16: 0
  hepg2_flor_pod_16: -4.417
  hepg2_flor_wauc_16: 0
  hepg2_flor_emax_24: 0
  hepg2_flor_pod_24: -4.417
  hepg2_flor_wauc_24: 0
  hepg2_flor_emax_32: 0
  hepg2_flor_pod_32: -4.417
  hepg2_flor_wauc_32: 0
  hepg2_flor_emax_40: 0
  hepg2_flor_pod_40: -4.417
  hepg2_flor_wauc_40: 0
HepG2 cells [3]
  hepg2_glo_auc: 0
  hepg2_glo_time: 48
  hepg2_glo_bin: inactive
  hepg2_glo_emax_0: 0
  hepg2_glo_pod_0: -4.417
  hepg2_glo_wauc_0: 0
  hepg2_glo_emax_8: 0
  hepg2_glo_pod_8: -4.417
  hepg2_glo_wauc_8: 0
  hepg2_glo_emax_16: 0
  hepg2_glo_pod_16: -4.417
  hepg2_glo_wauc_16: 0
  hepg2_glo_emax_24: 0
  hepg2_glo_pod_24: -4.417
  hepg2_glo_wauc_24: 0
  hepg2_glo_emax_32: 0
  hepg2_glo_pod_32: -4.417
  hepg2_glo_wauc_32: 0
  hepg2_glo_emax_40: 0
  hepg2_glo_pod_40: -4.417
  hepg2_glo_wauc_40: 0
HEK293 cells [4]
  hek293_glo_auc: 0
  hek293_glo_time: 48
  hek293_glo_bin: inactive
  hek293_glo_emax_0: 0
  hek293_glo_pod_0: -4.417
  hek293_glo_wauc_0: 0
  hek293_glo_emax_8: 0
  hek293_glo_pod_8: -4.417
  hek293_glo_wauc_8: 0
  hek293_glo_emax_16: 0
  hek293_glo_pod_16: -4.417
  hek293_glo_wauc_16: 0
  hek293_glo_emax_24: 0
  hek293_glo_pod_24: -4.417
  hek293_glo_wauc_24: 0
  hek293_glo_emax_32: 0
  hek293_glo_pod_32: -4.417
  hek293_glo_wauc_32: 0
  hek293_glo_emax_40: 0
  hek293_glo_pod_40: -4.417
  hek293_glo_wauc_40: 0
[5]
  information: 0

## Cc1cc(N)c2cc(NC(=O)Nc3ccc4nc(C)cc(N)c4c3)ccc2n1.Cl.Cl [Aminoquinuride dihydrochloride]
HEK293 cells [1]
  hek293_flor_auc: 0
  hek293_flor_time: 48
  hek293_flor_bin: inactive
  hek293_flor_emax_0: 0
  hek293_flor_pod_0: -4.417
  hek293_flor_wauc_0: 0
  hek293_flor_emax_8: 0
  hek293_flor_pod_8: -4.417
  hek293_flor_wauc_8: 0
  hek293_flor_emax_16: 0
  hek293_flor_pod_16: -4.417
  hek293_flor_wauc_16: 0
  hek293_flor_emax_24: 0
  hek293_flor_pod_24: -4.417
  hek293_flor_wauc_24: 0
  hek293_flor_emax_32: 0
  hek293_flor_pod_32: -4.417
  hek293_flor_wauc_32: 0
  hek293_flor_emax_40: 0
  hek293_flor_pod_40: -4.417
  hek293_flor_wauc_40: 0
HepG2 cells [2]
  hepg2_flor_auc: 0
  hepg2_flor_time: 48
  hepg2_flor_bin: inactive
  hepg2_flor_emax_0: 0
  hepg2_flor_pod_0: -4.417
  hepg2_flor_wauc_0: 0
  hepg2_flor_emax_8: 0
  hepg2_flor_pod_8: -4.417
  hepg2_flor_wauc_8: 0
  hepg2_flor_emax_16: 0
  hepg2_flor_pod_16: -4.417
  hepg2_flor_wauc_16: 0
  hepg2_flor_emax_24: 0
  hepg2_flor_pod_24: -4.417
  hepg2_flor_wauc_24: 0
  hepg2_flor_emax_32: 0
  hepg2_flor_pod_32: -4.417
  hepg2_flor_wauc_32: 0
  hepg2_flor_emax_40: 0
  hepg2_flor_pod_40: -4.417
  hepg2_flor_wauc_40: 0
HepG2 cells [3]
  hepg2_glo_auc: 0
  hepg2_glo_time: 48
  hepg2_glo_bin: inactive
  hepg2_glo_emax_0: 0
  hepg2_glo_pod_0: -4.417
  hepg2_glo_wauc_0: 0
  hepg2_glo_emax_8: 0
  hepg2_glo_pod_8: -4.417
  hepg2_glo_wauc_8: 0
  hepg2_glo_emax_16: 0
  hepg2_glo_pod_16: -4.417
  hepg2_glo_wauc_16: 0
  hepg2_glo_emax_24: 0
  hepg2_glo_pod_24: -4.417
  hepg2_glo_wauc_24: 0
  hepg2_glo_emax_32: 0
  hepg2_glo_pod_32: -4.417
  hepg2_glo_wauc_32: 0
  hepg2_glo_emax_40: 0
  hepg2_glo_pod_40: -4.417
  hepg2_glo_wauc_40: 0
HEK293 cells [4]
  hek293_glo_auc: 0
  hek293_glo_time: 48
  hek293_glo_bin: inactive
  hek293_glo_emax_0: 0
  hek293_glo_pod_0: -4.417
  hek293_glo_wauc_0: 0
  hek293_glo_emax_8: 0
  hek293_glo_pod_8: -4.417
  hek293_glo_wauc_8: 0
  hek293_glo_emax_16: 0
  hek293_glo_pod_16: -4.417
  hek293_glo_wauc_16: 0
  hek293_glo_emax_24: 0
  hek293_glo_pod_24: -4.417
  hek293_glo_wauc_24: 0
  hek293_glo_emax_32: 0
  hek293_glo_pod_32: -4.417
  hek293_glo_wauc_32: 0
  hek293_glo_emax_40: 0
  hek293_glo_pod_40: -4.417
  hek293_glo_wauc_40: 0
[5]; any activity in any time point/assay
  information: 0
